Measured values from US12162855B2, “Tetrahydroquinolino derivatives for the treatment of metastatic and chemoresistant cancers” (THE TRUSTEES OF PRINCETON UNIVERSITY, priority 2018, dated 2024).

Target: T1, ALDH1a3 (Homo sapiens, UniProt P47895)
T1 construct: lentiviral vectors containing either the vector backbone or full-length human Aldh1a3; expressed in transfected cells; host or cells: SUM159-M1a (A1) and SUM159 (A7) breast cancer cells, lentiviral pLex vector, puromycin selection
T1 sequence (P47895 1-512): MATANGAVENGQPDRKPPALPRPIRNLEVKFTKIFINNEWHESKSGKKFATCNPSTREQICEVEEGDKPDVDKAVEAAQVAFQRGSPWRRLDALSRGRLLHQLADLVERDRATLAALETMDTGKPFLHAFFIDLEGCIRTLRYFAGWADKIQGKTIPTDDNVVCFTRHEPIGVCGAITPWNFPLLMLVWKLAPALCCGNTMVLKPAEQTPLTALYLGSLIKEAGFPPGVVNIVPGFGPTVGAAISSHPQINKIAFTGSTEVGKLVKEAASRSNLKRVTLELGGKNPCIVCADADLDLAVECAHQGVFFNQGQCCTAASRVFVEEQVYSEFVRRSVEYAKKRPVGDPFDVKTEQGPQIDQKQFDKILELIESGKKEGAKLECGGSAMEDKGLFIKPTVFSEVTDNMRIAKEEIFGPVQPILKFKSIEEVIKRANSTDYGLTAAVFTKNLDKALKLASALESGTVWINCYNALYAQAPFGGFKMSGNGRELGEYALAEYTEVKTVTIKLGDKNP
Assay: ALDEFLUOR assay in SUM159-M1a-Aldh1a3 cells (flow cytometry)
Assay type: cell-based
Settings: for inhibition at 0.1 µM / Percent of Cells Positive for ALDEFLUOR at 100 nM: SUM159-M1a-Aldh1a3 cells, compound at 100 nM; for inhibition at 0.1 µM: read-out: Inhibitory Activity at 100 nM (%)
Description: Cells were counted, centrifuged and resuspended at 1,000,000 cells/mL in ALDEFLUOR™ buffer (Stemcell Technologies). ALDEFLUOR™ substrate (Stemcell Technologies, 1:200) and test compound or 1 mM DEAB were added to cell suspension and incubated at 37° C. for 45 minutes with vortexing every 15 minutes. Cells were centrifuged and resuspended in ALDEFLUOR™ buffer with DAPI at 5 μg/mL. Samples were analyzed with the BD LSR2 flow cytometry platform. Gating was performed using DEAB as a negative control.
Gating for background fluorescence was performed using 1 millimolar DEAB as a negative control.
The [inh-min] threshold was set at the lower bound of two standard deviations of control samples, while the IC50 threshold was set at 50% of the average of control samples.
High activity was gated at the 99th percentile of cells at a MBE1.5 concentration of 10 nanomolar. The [inh-min] threshold was set at the lower bound of two standard deviations of control samples.
An ALDEFLUOR™ assay was also used to assess the relative activity of several compounds described herein against SUM159-M1a-Aldh1a3 cells. The activity of several compounds in the assay at a concentration of 100 nM is reported in Table 1, along with the chemical structure and compound name associated with each compound.

SMILES	inhibition at 0.1 µM [%]	Percent of Cells Positive for ALDEFLUOR at 100 nM [%]	relative potency, ALDEFLUOR activity (FIG. 12) (concentration of 10 nM, compared to DMSO or DEAB-treated cells)	inhibition of ALDH1a3 activity (FIG. 1A) (compounds at 100 nM)
CC(C)Cc1ccccc1C(=O)Nc1cc2c(cc1F)NC(=O)CC2 [MBE1.5C, N-(7-fluoro-2-oxo-1,2,3,4-tetrahydroquinolin-6-yl)-2-isobutylbenzamide]			nearly twice as potent as MBE 1.5, MBE 1.5A or MBE 1.5D	
CCc1cnccc1C(=O)Nc1ccc2c(c1)CCC(=O)N2 [MBE1.6, 3-ethyl-N-(2-oxo-1,2,3,4-tetrahydroquinolin-6-yl)isonicotinamide]	83	13		high-affinity compounds for the inhibition of ALDH1a3 activity
Cc1ccc(C)c(CNc2ccc3c(c2)CCC(=O)N3)c1 [MBE2, 6-((2,5-dimethylbenzyl)amino)-3,4-dihydroquinolin-2(1H)-one]	45			
Cc1ccc(C(=O)Nc2ccc3c(c2)CCC(=O)N3)cc1C [MBE3.1, 3,4-dimethyl-N-(2-oxo-1,2,3,4-tetrahydroquinolin-6-yl)benzamide]	0.6			
Cc1ccc(C(=O)Nc2ccc3c(c2)CCC(=O)N3)c(C)c1 [MBE3.2, 2,4-dimethyl-N-(2-oxo-1,2,3,4-tetrahydroquinolin-6-yl)benzamide]	3.3			
Cc1ccccc1C(=O)Nc1ccc2c(c1)CCC(=O)N2 [MBE3.3, 2-methyl-N-(2-oxo-1,2,3,4-tetrahydroquinolin-6-yl)benzamide]	42			

Now from value to compound, other results behind:

inhibition at 0.1 µM [%]	Percent of Cells Positive for ALDEFLUOR at 100 nM [%]	SMILES	relative potency, ALDEFLUOR activity (FIG. 12) (concentration of 10 nM, compared to DMSO or DEAB-treated cells)	inhibition of ALDH1a3 activity (FIG. 1A) (compounds at 100 nM)
8		O=C1CCc2cc(NC(=O)c3ccncc3)c(F)cc2N1 [MBE1.2, N-(7-fluoro-2-oxo-1,2,3,4-tetrahydroquinolin-6-yl)isonicotinamide]		
11		O=C1CCc2cc(NCc3ccccc3)ccc2N1 [MBE3.4, 6-(benzylamino)-3,4-dihydroquinolin-2(1H)-one]		
18	63	O=C1CCc2cc(NC(=O)c3ccncc3F)c(F)cc2N1 [MBE3.5, 3-fluoro-N-(7-fluoro-2-oxo-1,2,3,4-tetrahydroquinolin-6-yl)isonicotinamide]		
29	55	Cc1cncc(C(=O)Nc2cc3c(cc2F)NC(=O)CC3)c1 [MBE3.6, N-(7-fluoro-2-oxo-1,2,3,4-tetrahydroquinolin-6-yl)-5-methylnicotinamide]		
2	75	O=C1CCc2cc(NCc3ccc[nH]3)c(F)cc2N1 [MBE3.8, 6-(((1H-pyrrol-2-yl)methyl)amino)-7-fluoro-3,4-dihydroquinolin-2(1H)-one]		
